Nine compounds from patent publication US8063225B2, “Tricyclic compound derivatives useful in the treatment of neoplastic diseases, inflammatory disorders and immunomodulatory disorders” (Chembridge Corporation, priority 2006, dated 2011) can be followed below.

Where only a bound is given, the exact number is not on record here.

In one experiment the target is T1, IGF1R tyrosine kinase (Homo sapiens, UniProt P08069).
T1 construct: 6×His- or GST-tagged kinase domain fragments of the corresponding RTKs expressed in baculovirus system; host or cells: baculovirus system
As to the kind of experiment: IGF1R tyrosine kinase assay (Kinase-Glo ATP depletion or PT66/PT100 AlphaScreen). The note with it: biochemical tyrosine kinase assay. The method in brief:
(§1)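 Kinase-Glo format: baculovirus-expressed tagged kinase domain, poly(Glu-Tyr), 10 μM ATP, pH 7.5 Tris, MgCl2/MnCl2, DTT; 60 min at 37° C; remaining ATP by luciferase luminescence. Other kinases run identically, enzyme titrated to ≤30% ATP consumption. IC50 by non-linear regression, quadruplicates.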

A further experiment addresses T2, Alk (Homo sapiens, UniProt Q9UM73).
T2 construct: 6×His- or GST-tagged kinase domain fragments of the corresponding RTKs expressed in baculovirus system; host or cells: baculovirus system
The experiment in a line: Tyrosine kinase assay (Kinase-Glo or AlphaScreen), Alk. The note with it: biochemical tyrosine kinase assay. The method in brief:
as §1

The target of another experiment is T3, Jak2 (Homo sapiens, UniProt O60674).
T3 construct: 6×His- or GST-tagged kinase domain fragments of the corresponding RTKs expressed in baculovirus system; host or cells: baculovirus system
As to the kind of experiment: Tyrosine kinase assay (Kinase-Glo or AlphaScreen), Jak2. Conditions: biochemical tyrosine kinase assay. The method in brief: as §1

A further experiment concerns K562. The experiment in a line: Cell proliferation inhibition, Cell Titer-Glo, K562. The note with it: Homo sapiens; cell proliferation assay, K562 cells. In kind it is cell-based. The method in brief: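 Proliferation inhibition in human K562 cells was assessed in a standard 3-day assay. Cells (2500-5000 per well) in 384-well white, clear-bottomed plates received serial compound dilutions, then Cell Titer-Glo reagent was added per the manufacturer's protocol. Luminescence reflecting ATP content of metabolically active cells was counted in a multiwell reader, and IC50 curves were generated.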

The next experiment relates to Ba/F3. The experiment in a line: Cell proliferation inhibition, Cell Titer-Glo, Ba/F3. In kind it is cell-based. The note with it: Mus musculus, BaF3; cell proliferation assay, Ba/F3 cells. The method in brief: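 This standard 3-day proliferation assay used Ba/F3 cells plated in 384-well white plates with clear bottoms at 2500-5000 cells per well and treated with compound dilutions. Viable cell number was determined by mixing in Cell Titer-Glo developing reagent according to the manufacturer's protocol and counting luminescence. Percent viability relative to day 0 and untreated wells produced IC50 curves.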

A further experiment concerns the target T4, InsR (Homo sapiens, UniProt P06213).
T4 construct: 6×His- or GST-tagged kinase domain fragments of the corresponding RTKs expressed in baculovirus system; host or cells: baculovirus system
The experiment in a line: Tyrosine kinase assay (Kinase-Glo or AlphaScreen), InsR. Conditions: biochemical tyrosine kinase assay. The method in brief: as §1

The next experiment has as its system H929 (multiple myeloma). As to the kind of experiment: Cell proliferation inhibition, Cell Titer-Glo, H929. Type of experiment: cell-based. The note with it: Homo sapiens, NCI-H929; cell proliferation assay, H929 cells. The procedure:
IGF1R and other tyrosine kinase inhibitors can inhibit the proliferation of certain cancer cell lines indicating their possible therapeutic utility for treating the corresponding cancer types. Cancer cell lines of interest and control normal lines, including CHO, HEK293, BA/F3, MM1, H929, COLO205, PC3, DU145, MCF7, Panc1, ACHN, Hep G2, H460, K562, TT, U87-G, CAOV-3, SK-MEL5, Karpas 299, are plated in white, clear-bottomed 384-well cell culture plates at 2500-5000 cells per well and supplied with dilutions of tested compounds After a desired period of time (typically 3 days), the number of viable cells is quantitated by using Cell Titer-Glo Luminescent Cell Viability Assay (Promega), a cell proliferation assay system based on detection of total amount of ATP present as a measure of cell metabolic activity. The plated cells are mixed with the Cell Titer-Glo developing reagent and counted in a luminescence multiwell plate reader according to the standard manufacturer's protocol to generate IC50 curves for cell proliferation inhibition.
IGF1R and other tyrosine kinase inhibitors can inhibit the proliferation of certain cancer cell lines indicating their possible therapeutic utility for treating the corresponding cancer types. Cancer cell lines of interest and control normal lines, including CHO, HEK293, BA/F3, COLO205, PC3, DU145, MCF7, Panc1, ACHN, Hep G2, H460, K562, TT, U87-MG, CAOV-3, SK-MEL5, Karpas 299 and human multiple myeloma cell lines H929, MM1s, MM1r, UTMC2, CPM2, KMS11, My5, KMS12PE, My7, JJN3, KMS18, U266, SKMM2, RPMI-8226 are plated in white, clear-bottomed 384-well cell culture plates at 2500-5000 cells per well and supplied with dilutions of tested compounds After a desired period of time (typically 3 days), the number of viable cells is quantitated by using Cell Titer-Glo Luminescent Cell Viability Assay (Promega), a cell proliferation assay system based on detection of total amount of ATP present as a measure of cell metabolic activity. The plated cells are mixed with the Cell Titer-Glo developing reagent and counted in a luminescence multiwell plate reader according to the standard manufacturer's protocol to generate IC50 curves for cell proliferation inhibition. Results are typically reported as percent of growth (% viability =(OD72h(compound)−ODday0))/(OD72h(no compound)−ODday0). Alternatively, viable cells are quantitated by using the conventional colorimetric MTT assay. The MTT assay is based on the cleavage of the yellow tetrazolium salt MTT to purple formazan crystal by metabolic active cells. The formazan is then solubilized, and the concentration determined by optical density at 570 nm. The cells plated and incubated with a compound as described above are supplemented with the solution of MTT and incubated for 2-3 hours. The growth medium is removed and dimethyl sulfoxide is added into each well to dissolve the formazan. The absorbance is measured on an ELISA plate reader with a test wavelength of 570 nm and a background subtraction wavelength of 630 nm to obtain sample signal (OD570-OD630). […] The results are reported in terms of IC50 value for a particular compound and a cell line in the standard 3-day proliferation assay using Cell Titer-Glo. […] The results are reported in terms of IC50 value for a particular compound and a cell line in the standard 3-day proliferation assay using MTT assay.

For a further experiment, the system named is Karpas-299. As to the kind of experiment: Cell proliferation inhibition, Cell Titer-Glo, Karpas-299. The note with it: Homo sapiens; cell proliferation assay, Karpas-299 cells. In kind it is cell-based. The method in brief:
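In this standard 3-day proliferation assay, Karpas 299 cells plated at 2500-5000 cells per well in 384-well white, clear-bottomed plates were treated with compound dilutions. Cell Titer-Glo developing reagent was added following the manufacturer's protocol, luminescence reflecting ATP content was read on a multiwell plate reader, and IC50 curves were generated.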

T3 sequence (O60674 849-1124 limits assumed, species assumed): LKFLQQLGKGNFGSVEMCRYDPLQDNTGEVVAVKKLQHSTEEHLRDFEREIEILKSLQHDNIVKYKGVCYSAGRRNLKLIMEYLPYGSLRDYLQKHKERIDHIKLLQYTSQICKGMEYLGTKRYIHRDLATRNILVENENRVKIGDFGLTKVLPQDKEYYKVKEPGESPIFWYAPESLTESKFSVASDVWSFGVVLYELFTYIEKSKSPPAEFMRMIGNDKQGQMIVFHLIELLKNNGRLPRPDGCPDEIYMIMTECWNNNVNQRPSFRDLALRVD
T1 sequence (P08069 999-1274 limits assumed): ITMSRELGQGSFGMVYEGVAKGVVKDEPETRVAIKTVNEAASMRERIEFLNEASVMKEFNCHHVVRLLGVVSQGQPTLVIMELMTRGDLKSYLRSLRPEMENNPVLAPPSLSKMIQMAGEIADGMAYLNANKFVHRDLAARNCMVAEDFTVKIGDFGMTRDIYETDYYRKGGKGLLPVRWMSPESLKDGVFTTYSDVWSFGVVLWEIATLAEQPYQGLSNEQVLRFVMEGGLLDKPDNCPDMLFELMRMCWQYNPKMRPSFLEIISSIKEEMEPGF
T4 sequence (P06213 1023-1298 limits assumed, species assumed): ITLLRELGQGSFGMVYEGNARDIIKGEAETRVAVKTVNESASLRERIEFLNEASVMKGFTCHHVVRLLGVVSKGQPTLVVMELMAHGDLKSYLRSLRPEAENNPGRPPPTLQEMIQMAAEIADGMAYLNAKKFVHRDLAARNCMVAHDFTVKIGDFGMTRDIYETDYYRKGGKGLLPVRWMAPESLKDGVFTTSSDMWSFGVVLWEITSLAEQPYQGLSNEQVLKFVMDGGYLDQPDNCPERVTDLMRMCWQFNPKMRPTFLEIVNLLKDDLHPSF
T2 sequence (Q9UM73 1116-1392 limits assumed, species assumed): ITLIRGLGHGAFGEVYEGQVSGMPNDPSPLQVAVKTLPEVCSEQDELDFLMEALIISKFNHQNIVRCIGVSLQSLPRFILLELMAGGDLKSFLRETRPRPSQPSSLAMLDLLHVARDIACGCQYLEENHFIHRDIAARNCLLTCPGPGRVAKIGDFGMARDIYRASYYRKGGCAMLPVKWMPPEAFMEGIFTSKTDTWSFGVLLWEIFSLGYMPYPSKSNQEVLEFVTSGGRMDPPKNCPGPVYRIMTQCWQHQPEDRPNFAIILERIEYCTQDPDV

On to `O=C1c2cc3nc(-c4c(NC[C@@H](O)COc5c(F)ccc(Cl)c5F)cc[nH]c4=O)[nH]c3cc2C(=O)N1C1CCN(CCO)CC1` [compound 125], for which the IC50 against IGF1R tyrosine kinase is under 0.5 µM; at Alk, 0.5 to 5 µM; on Jak2, 0.5 to 5 µM; in the experiment with K562, over 15 µM; in the experiment with Ba/F3, over 15 µM; against InsR, 0.5 to 5 µM. Moreover, the concentration for half-maximal inhibition (IC50) in the experiment with H929 (multiple myeloma) and in the experiment with Karpas-299 was over 15 µM in each case.
Turning to `Cc1ccc(OC[C@H](O)CNc2cc[nH]c(=O)c2-c2nc3c(C)c4c(cc3[nH]2)C(=O)N(C2CCN(C)CC2)C4=O)c(C)c1Cl` [compound 137], the IC50 at IGF1R tyrosine kinase was 0.5 to 5 µM; against Alk, 5 to 15 µM; against Jak2, 0.5 to 5 µM; in the experiment with K562, over 15 µM; in the experiment on Ba/F3, over 15 µM; on InsR, under 0.5 µM. Moreover, the 50% inhibitory concentration (IC50) in the experiment on H929 (multiple myeloma) and in the experiment with Karpas-299 was over 15 µM throughout.
Regarding `CN1CCC(N2C(=O)c3cc4nc(-c5c(N[C@@H](CO)Cc6c[nH]cn6)cc[nH]c5=O)[nH]c4cc3C2=O)CC1` [compound 3], the IC50 was 0.5 to 5 µM against IGF1R tyrosine kinase; 5 to 15 µM on Alk; over 15 µM at Jak2; 5 to 15 µM with K562; over 15 µM in the experiment with Ba/F3; 0.5 to 5 µM against InsR. For the same compound, the half-maximal inhibitory concentration (IC50) in the experiment with H929 (multiple myeloma) and in the experiment with Karpas-299 was 5 to 15 µM throughout.
Take `COc1ccc2c(ccn2C[C@H](O)CNc2cc[nH]c(=O)c2-c2nc3cc4c(cc3[nH]2)C(=O)N(C2CCN(C)CC2)C4=O)c1` [compound 113]: the IC50 against IGF1R tyrosine kinase was 0.5 to 5 µM; on Alk, under 0.5 µM; against Jak2 it was 0.5 to 5 µM; in the experiment on K562, over 15 µM; in the experiment with Ba/F3, over 15 µM; at InsR, 0.5 to 5 µM. Further, the IC50 with H929 (multiple myeloma) and with Karpas-299 was over 15 µM in each case.
As to `O=C1c2cc3nc(-c4c(NC[C@@H](O)c5cccc(Cl)c5)cc[nH]c4=O)[nH]c3cc2C(=O)N1CCCN1CCCC1` [compound 35], the IC50 is under 0.5 µM against IGF1R tyrosine kinase; 0.5 to 5 µM at Alk; 0.5 to 5 µM on Jak2; over 15 µM in the experiment on K562; over 15 µM in the experiment on Ba/F3; under 0.5 µM against InsR. For the same compound, the results for the IC50 in the experiment with H929 (multiple myeloma) and in the experiment on Karpas-299 were 5 to 15 µM and over 15 µM, respectively.
As for `Cc1c(Cl)cccc1OC[C@H](O)CNc1cc[nH]c(=O)c1-c1nc2cc3c(cc2[nH]1)C(=O)N(C1CCN(CCN(C)C)CC1)C3=O` [compound 127], the IC50 on IGF1R tyrosine kinase is under 0.5 µM; on Alk, 0.5 to 5 µM; on Jak2 it was 0.5 to 5 µM; in the experiment with K562, over 15 µM; with Ba/F3, over 15 µM; against InsR, 0.5 to 5 µM. Moreover, the IC50 in the experiment on H929 (multiple myeloma) and with Karpas-299 was over 15 µM throughout.
For `Cc1ccc(OC[C@H](O)CNc2cc[nH]c(=O)c2-c2nc3cc4c(cc3[nH]2)C(=O)N(CCCN2CCCC2)C4=O)c2c1CCC2` [compound 114], the IC50 was under 0.5 µM against IGF1R tyrosine kinase; 0.5 to 5 µM against Alk; 0.5 to 5 µM at Jak2; over 15 µM with K562; over 15 µM in the experiment with Ba/F3; under 0.5 µM against InsR. Moreover, the IC50 in the experiment with H929 (multiple myeloma) and in the experiment with Karpas-299 was over 15 µM each time.
Consider `Cc1ccc(OC[C@H](O)CNc2cc[nH]c(=O)c2-c2nc3cc4c(cc3[nH]2)C(=O)N(CC(C)(C)CN(C)C)C4=O)c(C)c1` [compound 116], for which the IC50 on IGF1R tyrosine kinase is under 0.5 µM; at Alk, 5 to 15 µM; against Jak2 it was 0.5 to 5 µM; in the experiment with K562 it was over 15 µM; with Ba/F3 it was over 15 µM; against InsR, under 0.5 µM. In addition, the IC50 was over 15 µM with H929 (multiple myeloma) and 5 to 15 µM in the experiment on Karpas-299.
With `COc1ccccc1OCC(O)CNc1cc[nH]c(=O)c1-c1nc2cc3c(cc2[nH]1)C(=O)N(C1CCN(C)CC1)C3=O` (stereo not drawn) [compound 41], the concentration for half-maximal inhibition (IC50) was 0.5 to 5 µM at IGF1R tyrosine kinase; 5 to 15 µM at Alk; 5 to 15 µM against Jak2; 5 to 15 µM in the experiment on K562; 0.5 to 5 µM in the experiment with Ba/F3; 0.5 to 5 µM against InsR. Besides, the IC50 was in the range of 5 to 15 µM with H929 (multiple myeloma) and 0.5 to 5 µM in the experiment on Karpas-299.
